Experimental findings from patent US8883789B2, “Piperazine derivatives and their use as positive allosteric modulators of mGluR5 receptors” (Boehringer Ingelheim International GmbH, priority 2011, dated 2014) are described below.

Each structure is given as a SMILES string.

This experiment deals with T1, human recombinant mGluR5 (Homo sapiens, UniProt P41594).
T1 construct: expressed in transfected cells; hygromycin and geneticin selection
T1 sequence (P41594 21-1212): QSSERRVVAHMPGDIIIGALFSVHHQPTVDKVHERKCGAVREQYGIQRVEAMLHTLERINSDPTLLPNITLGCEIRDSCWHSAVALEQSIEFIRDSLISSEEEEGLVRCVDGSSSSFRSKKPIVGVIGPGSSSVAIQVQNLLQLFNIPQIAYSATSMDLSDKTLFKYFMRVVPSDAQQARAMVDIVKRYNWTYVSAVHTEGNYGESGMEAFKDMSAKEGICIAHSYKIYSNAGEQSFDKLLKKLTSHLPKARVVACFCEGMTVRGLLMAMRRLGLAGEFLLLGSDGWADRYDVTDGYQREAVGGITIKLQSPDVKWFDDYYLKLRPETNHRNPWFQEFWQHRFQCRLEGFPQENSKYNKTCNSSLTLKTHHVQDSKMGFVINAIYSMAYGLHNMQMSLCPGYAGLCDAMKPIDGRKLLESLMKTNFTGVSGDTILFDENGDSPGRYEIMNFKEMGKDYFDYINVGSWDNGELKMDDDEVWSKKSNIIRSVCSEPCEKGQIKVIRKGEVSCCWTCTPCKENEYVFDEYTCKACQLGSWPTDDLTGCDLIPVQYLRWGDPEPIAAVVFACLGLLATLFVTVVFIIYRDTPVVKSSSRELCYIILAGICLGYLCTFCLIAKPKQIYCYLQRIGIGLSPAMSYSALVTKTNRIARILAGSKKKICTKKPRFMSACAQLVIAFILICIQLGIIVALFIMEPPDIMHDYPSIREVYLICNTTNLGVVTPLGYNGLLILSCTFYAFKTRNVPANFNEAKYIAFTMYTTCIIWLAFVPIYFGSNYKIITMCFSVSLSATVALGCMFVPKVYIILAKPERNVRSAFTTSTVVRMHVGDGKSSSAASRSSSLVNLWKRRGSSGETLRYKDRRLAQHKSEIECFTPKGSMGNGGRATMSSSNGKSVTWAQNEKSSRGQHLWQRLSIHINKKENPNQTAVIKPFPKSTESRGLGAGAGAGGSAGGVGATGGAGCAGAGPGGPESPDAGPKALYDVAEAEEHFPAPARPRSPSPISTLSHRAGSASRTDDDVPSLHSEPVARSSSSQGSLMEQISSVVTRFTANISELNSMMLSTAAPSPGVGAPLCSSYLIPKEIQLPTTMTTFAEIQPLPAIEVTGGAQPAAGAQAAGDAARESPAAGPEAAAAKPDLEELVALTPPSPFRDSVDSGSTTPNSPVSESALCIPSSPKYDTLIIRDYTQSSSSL
Kind of experiment: positive modulation of mGluR5, calcium based FLIPR assay. The settings on record: HEK 293 cell line expressing human recombinant mGluR5; Ca2+ peak height after glutamate at approximately 5% basal stimulation; nonlinear regression. How it is done:
The positive modulation of mGluR5 is measured in a HEK 293 cell line expressing human recombinant mGluR5 and is detected with calcium based FLIPR assay. The cells are cultured with DMEM supplemented with 10% FCS, 2 μg/mL tetracycline, 100 μg/mL hygromycin and 500 μg/mL geneticin. The cell culture media is exchanged for tetracycline-free cell culture media 3-7 days before the assay. One day before the assay the cell culture medium is exchanged to DMEM without glutamine and phenol red and supplemented with 10% FCS, 100 μg/mL hygromycin and 500 μg/mL geneticin. On the assay day, the medium of the subconfluent cultures is removed and the cells are detached by addition of 2.5 ml EDTA (0.02%) per 175 cm2 culture flask for 1 minute. The cells are resuspend in Ringer solution (140 mM NaCl, 5 mM KCl, 2.5 mM CaCl2, 1.5 mM MgCl2, 5 mM Glucose, 10 mM Hepes; adjusted to pH 7.4 with NaOH), pooled and Ringer solution added to adjust the volume to 50 mL. The cell suspension is centrifuged for […] at 1500 U/min (425 g). The supernatant is removed and the cells washed a second time with 50 ml fresh Ringer solution and centrifuged again as before. The supernatant is again removed and the pellet resuspended in Ringer solution to 1,000,000 cells/ml (1×10^6 cells/mL). The cells are plated onto BD BioCoat Poly-D-Lysine 384 well plates (20.000 cells/well; 20 μl/well). The lid covered plates are then incubated until use at 37° C./10% CO2. For dye loading, 20 μl of Calcium-4 assay kit solution (prepared according to the manufacturer's description in Ringer solution) are added to the cells and the plates are incubated for 80 min 37° C. and then 10 min at room temperature.
Controls, Compound Dilution and Assay Execution:
Each assay plate contained wells with “high” and “low” controls:
Low controls 1% DMSO/ringer solution+basal glutamate activation (defined as 100% CTL).
High controls 10 μM CDPPB+basal glutamate activation (defined as 200% CTL).
Test compounds are dissolved and diluted in DMSO to 100-fold the desired concentrations. In a second step, the compounds are diluted in Ringer solution such that the compounds are 4-fold more concentrated than the desired final assay concentration. The final DMSO concentration was 1%.
20 μl of each compound solution are then transferred to the assay plate and the Ca2+ kinetic is measured to determine any intrinsic compound activity. After 5 min incubation in the FLIPR device, the second stimulation with 20 μl of glutamate in Ringer solution (glutamate concentration adjusted to approximately 5% basal stimulation of the maximal possible glutamate effect) is added and the kinetic Ca2+ response of the wells was measured for the modulation effect.
The peak height of the Ca release related fluorescence signal (9-66) is used for the EC50.
The EC50 of the modulation is calculated over a nonlinear regression with GraphPad Prism (Table 1).
Turning to `C[C@@H]1CN(C(=O)c2ncn(-c3cccc(Cl)c3)n2)CCN1C(=O)c1cc(Br)c(Br)o1` [Example 249], the EC50 – broadly, the concentration that produces a half-maximal response – was 0.198 µM.
For `COc1cccc(C(=O)N2CCN(C(=O)c3nnn(-c4ccccc4F)n3)C(C)(C)C2)n1` [Example 201], the EC50 stood at 0.102 µM.
For the compound `Cc1c(C(=O)N2CCN(C(=O)c3ncn(-c4ccccc4)n3)C(C)(C)C2)n(C)c2ccccc12` [Example 110], the EC50 was found to be 0.142 µM.
With `CC1(C)CN(C(=O)c2ccnc(C(F)(F)F)c2)CCN1C(=O)c1ncn(-c2cccc(Cl)c2)n1` [Example 88] the figure was 0.375 µM; with `Cc1ccc2oc(C(=O)N3CCN(C(=O)c4ncn(-c5cccc(Cl)c5)n4)CC3C)c(C)c2c1` (stereo not shown) [Example 227], 0.954 µM; with `CC(C)c1cccc(C(=O)N2CCN(C(=O)c3ncn(-c4ccccc4)n3)C(C)(C)C2)n1` [Example 206, [4-(6-isopropyl-pyridine-2-carbonyl)-2,2-dimethyl-piperazin-1-yl]-(1-phenyl-1H-[1,2,4]triazol-3-yl)-methanone], 0.188 µM.
With `CC1(C)CN(C(=O)c2cccc3c2OCO3)CCN1C(=O)c1ncn(-c2cccc(Cl)c2)n1` [Example 48] the figure was 0.127 µM.
With `COCCOc1nc(C(=O)N2CCN(C(=O)c3ncn(-c4cccc(Cl)c4)n3)C(C)(C)C2)cc2ccccc12` [Example 34] the figure was 0.221 µM; with `Cc1c(C(=O)N2CCN(C(=O)c3ncn(-c4cccc(Cl)c4)n3)C(C)C2)oc2c(F)cccc12` (stereo not shown) [Example 284], 0.858 µM.
Regarding `CC(C)COc1cccc(C(=O)N2CCN(C(=O)c3ncn(-c4cccc(Cl)c4)n3)CC2C)c1` (stereo not shown) [Example 216], the EC50 came to 0.612 µM.
In the case of `COCC1(C)CN(C(=O)c2cccc(OC)n2)CCN1C(=O)c1ncn(-c2cccc(C)c2)n1` (stereo not shown) [Example 310], the EC50 came out at 0.802 µM.
With `COc1cccc(C(=O)N2C[C@@H](C)N(C(=O)c3ncn(-c4cccc(C)c4)n3)[C@@H](C)C2)n1` [Example 302, (2R*,6S*)-4-[(6-methoxypyridin-2-yl)carbonyl]-2,6-dimethyl-1-{[1-(3-methylphenyl)-1H-1,2,4-triazol-3-yl]carbonyl}piperazine] the figure was 0.166 µM.
With `CC1CN(C(=O)c2ncn(-c3cccc(Cl)c3)n2)CCN1C(=O)c1cc(Br)c(Br)o1` (stereo not shown) [Example 210, [1-(3-Chloro-phenyl)-1H-[1,2,4]triazol-3-yl]-[4-(4,5-dibromo-furan-2-carbonyl)-3-methyl-piperazin-1-yl]-methanone] the figure was 0.314 µM.
With `CC1CN(C(=O)c2ccc(Cl)s2)CCN1C(=O)c1ncn(-c2cccc(Cl)c2)n1` (stereo not shown) [Example 273] the figure was 1.32 µM.
As to `CCn1cc(-c2cccc(C(=O)N3CCN(C(=O)c4ncn(-c5cccc(Cl)c5)n4)C(C)(C)C3)n2)cn1` [Example 92], the concentration for a half-maximal effect (EC50) turned out to be 0.119 µM.
With `CCCOc1cccc(C(=O)N2CCN(C(=O)c3ncn(-c4cccc(Cl)c4)n3)CC2C)c1` (stereo not shown) [Example 219] the figure was 0.356 µM; with `CC(C)Oc1nc(C(=O)N2CCN(C(=O)c3ncn(-c4ccccc4)n3)C(C)(C)C2)cc2ccccc12` [Example 118], 0.05 µM.
Take `CC1(C)CN(C(=O)c2cccc(C(F)(F)F)c2)CCN1C(=O)c1ncn(-c2ccccc2)n1` [Example 98]: the EC50 was determined as 0.032 µM.
With `Cc1oc2ccc(Br)cc2c1C(=O)N1CCN(C(=O)c2ncn(-c3cccc(F)c3)n2)C(C)(C)C1` [Example 1, [4-(5-Bromo-2-methyl-benzofuran-3-carbonyl)-2,2-dimethyl-piperazin-1-yl]-[1-(3-fluoro-phenyl)-1H-[1,2,4]triazol-3yl]-methanone] the figure was 0.039 µM; with `CC1CN(C(=O)c2ncn(-c3cccc(Cl)c3)n2)CCN1C(=O)c1cccc2c1OCO2` (stereo not shown) [Example 220], 0.799 µM.
With `COc1cccc(C(=O)N2CCN(C(=O)c3ncn(-c4cccc(C)c4)n3)C[C@H]2C)n1` [Example 251, (R)-(6-Methoxy-pyridin-2-yl)-[2-methyl-4-(1-m-tolyl-1H-[1,2,4]-triazole-3-carbonyl)-piperazin-1-yl]-methanone] the figure was 0.886 µM.
With `CC1(C)CN(C(=O)c2csc(-c3ccccc3)n2)CCN1C(=O)c1ncn(-c2cccc(Cl)c2)n1` [Example 54] the figure was 0.201 µM; with `Cc1c(C(=O)N2CCN(C(=O)c3ncn(-c4ccccc4)n3)CC2C)oc2ccc(F)cc12` (stereo not shown) [Example 241], 0.987 µM.
In the case of `CC1(C)CN(C(=O)c2cccc(Cl)c2)CCN1C(=O)c1nnn(-c2cccc(Cl)c2)n1` [Example 191], the EC50 was 0.064 µM.
With `CC1(C)CN(C(=O)c2cc3ccccc3c(C3CC3)n2)CCN1C(=O)c1ncn(-c2ccccc2)n1` [Example 203] the figure was 0.062 µM; with `CC1(C)CN(C(=O)c2cccc(Cl)c2)CCN1C(=O)c1nnn(-c2ccccc2)n1` [Example 187], 0.024 µM; with `CCC[C@H]1CN(C(=O)c2ncn(-c3cccc(F)c3)n2)CCN1C(=O)c1cccc(OC)n1` [Example 261, (S)-{4-[1-(3-Fluoro-phenyl)-1H-[1,2,4]triazole-3-carbonyl]-2-propyl-piperazin-1-yl}-(6-methoxy-pyridin-2-yl)-methanone], 0.168 µM.
Regarding `CCc1ccc(C(=O)N2CCN(C(=O)c3ncn(-c4cccc(Cl)c4)n3)C(C)(C)C2)o1` [Example 60], the EC50 came to 0.069 µM.
With `C[C@H]1CN(C(=O)c2ncn(-c3cccc(F)c3)n2)CCN1C(=O)c1cc(Br)c(Br)o1` [Example 256, (S)-[4-(4,5-Dibromo-furan-2-carbonyl)-3-methyl-piperazin-1-yl]-[1-(3-fluoro-phenyl)-1H-[1,2,4]triazol-3-yl]-methanone] the figure was 0.205 µM; with `Cc1cccc(-n2cnc(C(=O)N3CCN(C(=O)c4cccc(C5CC5)n4)CC3(C)C)n2)c1` [Example 181], 0.019 µM.
With `COc1cccc(C(=O)N2CCN(C(=O)c3ncn(-c4ccccc4)n3)C(C)(C)C2)c1` [Example 122] the figure was 0.213 µM; with `COc1cccc(C(=O)N2CCN(C(=O)c3ncn(-c4cccc(Cl)c4)n3)CC2C)n1` (stereo not shown) [Example 211], 0.264 µM; with `CC1(C)CN(C(=O)c2cccc(C3CCC3)c2)CCN1C(=O)c1ncn(-c2ccccc2)n1` [Example 151], 0.016 µM.
As to `CC(C#N)c1cccc(C(=O)N2CCN(C(=O)c3ncn(-c4cccc(Cl)c4)n3)C(C)(C)C2)c1` (stereo not shown) [Example 75], the concentration giving a half-maximal response (EC50) amounted to 0.419 µM.
With `Cc1cccc(-n2cnc(C(=O)N3CCN(C(=O)c4c(C)oc5ccccc45)C(C)C3)n2)c1` (stereo not shown) [Example 238] the figure was 0.317 µM; with `COc1cccc(C(=O)N2CCN(C(=O)c3ncn(-c4cccc(Cl)c4)n3)CC2(C)C)n1` [Example 257, {4-[1-(3-Chloro-phenyl)-1H-[1,2,4]triazole-3-carbonyl]-2,2-dimethyl-piperazin-1-yl}-(6-methoxy-pyridin-2-yl)-methanone], 1.1 µM; with `CC1(C)CN(C(=O)c2cc(Br)c(Br)o2)CCN1C(=O)c1ncn(-c2ccccc2)n1` [Example 105], 0.064 µM.
For `CCn1ccc(C(=O)N2CCN(C(=O)c3ncn(-c4cccc(Cl)c4)n3)C(C)(C)C2)n1` [Example 56], the EC50 came to 0.436 µM.
With `COc1cccc(C(=O)N2CCN(C(=O)c3ncn(-c4cccc(Cl)c4)n3)[C@@H](C)C2)n1` [Example 300, (S)-{4-[1-(3-Chloro-phenyl)-1H-[1,2,4]triazole-3-carbonyl]-3-methyl-piperazin-1-yl}-(6-methoxy-pyridin-2-yl)-methanone] the figure was 0.154 µM; with `CC1(C)CN(C(=O)c2cc3ccccc3c(C3CC3)n2)CCN1C(=O)c1ncn(-c2cccc(Cl)c2)n1` [Example 204], 0.129 µM; with `CC1(C)CN(C(=O)c2cc(Cl)c3c(c2)OCCO3)CCN1C(=O)c1nnn(-c2ccccc2)n1` [Example 164, [4-(8-Chloro-2,3-dihydro-benzol-[1,4]dioxine-6-carbonyl)-2,2-dimethyl-piperazin-1-yl]-(2-phenyl-2H-tetrazol-5-yl)-methanone], 0.019 µM.
With `Cc1cc(C(=O)N2CCN(C(=O)c3ncn(-c4cccc(Cl)c4)n3)C(C)(C)C2)ccc1Cl` [Example 65] the figure was 0.144 µM; with `CCC[C@H]1CN(C(=O)c2ncn(-c3cccc(F)c3)n2)CCN1C(=O)c1cc(Br)c(Br)o1` [Example 262], 0.193 µM.
